{
  "source": "paper PMC12512767",
  "about": "“Discovery of new aurone derivatives as submicromolar CK2 inhibitors” (Journal of Enzyme Inhibition and Medicinal Chemistry, 2025)",
  "data": [
    {"molecular_target": "T1, recombinant human protein kinase CK2 alpha subunit (Homo sapiens, UniProt P68400)", "T1 sequence (P68400 whole entry)": "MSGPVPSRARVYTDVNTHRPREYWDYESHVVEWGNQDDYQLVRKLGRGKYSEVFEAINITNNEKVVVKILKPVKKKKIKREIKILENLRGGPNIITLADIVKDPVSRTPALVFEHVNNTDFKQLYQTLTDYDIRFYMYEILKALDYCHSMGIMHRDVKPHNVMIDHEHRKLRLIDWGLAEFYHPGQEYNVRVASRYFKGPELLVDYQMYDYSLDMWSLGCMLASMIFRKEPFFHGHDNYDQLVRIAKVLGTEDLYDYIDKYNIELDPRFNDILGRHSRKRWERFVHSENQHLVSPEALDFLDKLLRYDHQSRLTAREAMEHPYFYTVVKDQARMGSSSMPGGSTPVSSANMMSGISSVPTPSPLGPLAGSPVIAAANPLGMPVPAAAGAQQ", "test": "Capillary electrophoresis (CE) CK2 assay", "type": "biochemical", "details": "ATP 100 µM, peptide substrate 100 µM; 30 °C, 40 min; triplicate; Hill fit", "description": "(§1) The study was conducted using recombinant human protein kinase CK2 alpha subunit, obtained using plasmid pZW6 (Addgene, USA, catalogue number 27086), ATP (Sigma-Aldrich, USA, catalogue number A2383) and peptide substrate RRRDDDSDDD (GenScript, USA, catalogue number RP10318). Tris(hydroxymethyl)aminomethane hydrochloride (Tris-HCl) (Sigma-Aldrich, USA, catalogue number 10812846001), KCl (Sigma-Aldrich, USA, catalogue number P3911) and MgCl2 (Sigma-Aldrich, USA, catalogue number 208337) were used to prepare the reaction buffer. Dimethyl sulfoxide (DMSO) (Sigma-Aldrich, USA, catalogue number 472301) was used as a solvent for the compounds. Luminescent assays were performed using Kinase-Glo® kit (Promega, USA, catalogue number V6711). Aurone derivatives were synthesised following the procedure[20] described earlier starting from the benzo[e]benzofuran-1-one intermediate obtained in a known manner. The structures of tested aurone derivatives are given in the Results section.\n(§2) The reaction mixture volume was 50 μl. The reaction buffer contained 2 mM Tris HCl, 5 mM KCl and 1 mM MgCl2, pH 7.5. The concentration of CK2 alpha subunit was 2 mg/l per sample in control and experimental samples. The reaction mixtures contained 0.5 μl of inhibitor solution in DMSO per sample (final inhibitor concentrations were different in luminescent and CE assays) or 0.5 μl of pure DMSO in control and calibration samples. The samples were incubated at 30 °C for 40 min.\nThe initial concentrations of ATP and peptide substrate were 100 µM. The reaction was stopped by adding 100 μl of 20 mM EDTA disodium salt. All IC50 studies were performed in triplicate. Mean conversion values for each concentration were used for construction of the conversion-versus-concentration curves and IC50 determination.\nThe conversion was determined by the formula: C=100∗P/P+N\nC is the conversion in percent, P is the peak area of the phosphorylated product, and N is the peak area of the substrate.\nInhibition was calculated using the formula: I=100∗ Co−Ce/Co\nI – inhibition in percent, Со – conversion in control sample, Се – conversion in experimental sample.\nFor the tested compounds, inhibition curves were plotted as a function of concentration and fitted using the Hill equation: y=x^n/k^n+x^n y – inhibition in percent, x – inhibitor concentration, k – IC50 value, n – Hill coefficient.\nInhibition curves were built using at least four data points, with additional concentrations tested for some compounds to refine the curve’s shape. The IC50 value was determined from the fitted curve as the concentration producing 50% inhibition.\nAll electrophoretic separations were performed with a capillary electrophoresis system Сapel-105M (Lumex). Fused silica (Lumex) of a total length of 75 cm (effective length 65 cm) with inner diameter 50 μm was used. Before use, fused silica was washed for 5 min with 0.1 M HCl solution, then 5 min with distilled water, then 5 min with 0.1 M NaOH solution, again for 5 min with distilled water and for 5 min with background electrolyte (BGE).\nA 150 mM orthophosphoric acid (pH 1.2) was used as BGE. Before electrophoretic separation, 350 μl of deionised water was added to the samples. Samples were introduced hydrodynamically at 900 mbar*s. The electrophoresis voltage was 25 kV. Electrophoretic separation was carried out in positive polarity. Detection conducted at a wavelength of 192 nm. Instrument control, data collection and integration were performed with Elforun (Lumex) software.", "units": {"IC50": "nM"}, "values": [
      {"molecule": "O=C1C(=Cc2ccc(O)c([N+](=O)[O-])c2)Oc2c1ccc1ccccc21", "note": "[BFO22]", "IC50": 680},
      {"molecule": "O=C1C(=Cc2ccc(O)c(Cl)c2)Oc2ccc3ccccc3c21", "note": "[BFO25]", "IC50": 3},
      {"molecule": "COc1cc(C=C2Oc3ccc4ccccc4c3C2=O)cc([N+](=O)[O-])c1O", "note": "[BFO26]", "IC50": 130},
      {"molecule": "COc1cc(C=C2Oc3ccc4ccccc4c3C2=O)ccc1O", "note": "[BFO23]", "IC50": 130},
      {"molecule": "O=C1C(=Cc2ccc(O)c(F)c2)Oc2ccc3ccccc3c21", "note": "[BFO24]", "IC50": 220},
      {"molecule": "O=C1C(=Cc2ccc(O)c(Br)c2)Oc2ccc3ccccc3c21", "note": "[BFO27]", "IC50": 13}
    ]},
    {"molecular_target": "T1, recombinant human protein kinase CK2 alpha subunit", "test": "Luminescent (Kinase-Glo) CK2 screening assay", "type": "biochemical", "details": "inhibitor 1 μM; ATP 10 µM, peptide substrate RRRDDDSDDD 200 µM; 30 °C, 40 min; triplicate; LI = luciferase inhibition (luminescence lower than control)", "description": "as §1, §2\nThe luminescent assay measured sample luminescence following the addition of the Kinase-Glo luciferase mixture, with the signal reflecting the remaining ATP content. The final ATP concentration indicates the extent of peptide phosphorylation: higher ATP levels correspond to lower peptide phosphorylation. This method was considered as a rapid and straightforward approach for screening a large number of compounds without quantitatively determining their activity.\nATP and peptide substrate were initially present at concentrations of 10 µM and 200 µM, respectively. Calibration samples, which lacked the enzyme, represented the initial ATP concentration. The inhibitor concentration in experimental samples was 1 µM. Measurements were performed using a LuMate 4400 microplate reader (Awareness Technology, USA). Luminescence was recorded after adding 50 µL of the Kinase-Glo luminescent mixture to each sample. In order to simplify the screening process, no signal–concentration calibration curve was constructed for precise ATP quantification. Instead, luminescence values of experimental and control samples were compared directly with those of enzyme-free calibration samples, which reflected the initial ATP level. The percentage of inhibition was determined by the formula: I=100∗(Me−Mc)/(Mo−Mc)\nI is the inhibition in percent, Me, Mc and Mo are the luminescence of the experimental, calibration and control samples, respectively. The experiments were performed in triplicate, after which the obtained values were averaged.\nThis effect may result from the inhibition of luciferase activity. The decrease in luminescence reflects not increased ATP consumption by CK2 during peptide phosphorylation, but rather reduced oxyluciferin formation – the luminescent product – caused by luciferase inhibition by the test compound. The manufacturer of the Kinase-Glo kit, as well as practical studies of protein kinases claim the possibility of this effect[23]^,[24]. […] Furthermore, some compounds with potential luciferase inhibitory activity could have produced false-negative results.\nThis deviation was most pronounced in samples with low absolute luminescence values (and consequently, low inhibition).", "units": {"I (%) (inhibition)": "%"}, "values": [
      {"molecule": "COc1ccc2c(c1)OC(=Cc1cccc(O)c1)C2=O", "note": "[Compound 8]", "I (%) (inhibition)": "<25"},
      {"molecule": "COc1cc(C=C2Oc3c(ccc4ccccc34)C2=O)ccc1O", "note": "[Compound 28]", "I (%) (inhibition)": "<25"},
      {"molecule": "Cc1cc(C=C2Oc3c(Cl)ccc(Cl)c3C2=O)ccc1O", "note": "[Compound 18]", "I (%) (inhibition)": "<25"},
      {"molecule": "O=C1C(=Cc2ccc(O)c([N+](=O)[O-])c2)Oc2c1ccc1ccccc21", "note": "[BFO22]", "I (%) (inhibition)": "80 ± 13"},
      {"molecule": "O=C1C(=Cc2ccc(O)c(F)c2)Oc2ccc(Br)cc21", "note": "[Compound 15]", "I (%) (inhibition)": "<25"},
      {"molecule": "O=C1/C(=C/c2ccccc2O)Oc2cc(O)ccc21", "note": "[Compound 3]", "I (%) (inhibition)": "<25"},
      {"molecule": "Cc1cc(C=C2Oc3ccc4ccccc4c3C2=O)ccc1O", "note": "[Compound 45]", "I (%) (inhibition)": "<25"},
      {"molecule": "COc1cccc(C=C2Oc3ccccc3C2=O)c1O", "note": "[Compound 2]", "I (%) (inhibition)": "<25"},
      {"molecule": "O=C1C(=Cc2ccc(O)cc2)Oc2ccc3ccccc3c21", "note": "[Compound 38]", "I (%) (inhibition)": "<25"},
      {"molecule": "O=C1/C(=C/c2cc(Br)c(O)c(Br)c2)Oc2ccc3ccccc3c21", "note": "[Compound 54]", "I (%) (inhibition)": "69 ± 1"},
      {"molecule": "O=C1C(=Cc2cccc(O)c2)Oc2ccc3ccccc3c21", "note": "[Compound 40]", "I (%) (inhibition)": "<25"},
      {"molecule": "O=C(O)COc1ccc2c(c1)OC(=Cc1ccc(C(=O)O)cc1)C2=O", "note": "[Compound 12]", "I (%) (inhibition)": "<25"},
      {"molecule": "Cc1cc(C=C2Oc3ccc(Cl)cc3C2=O)ccc1O", "note": "[Compound 17]", "I (%) (inhibition)": "<25"},
      {"molecule": "COc1cc(C=C2Oc3cc(O)ccc3C2=O)cc(Cl)c1O", "note": "[Compound 5]", "I (%) (inhibition)": "48 ± 21"},
      {"molecule": "O=C1C(=Cc2cc(Br)c(O)c(Br)c2)Oc2c1ccc1ccccc21", "note": "[Compound 35]", "I (%) (inhibition)": "39 ± 14"},
      {"molecule": "O=C1C(=Cc2ccc(O)c(Br)c2)Oc2c1ccc1ccccc21", "note": "[Compound 34]", "I (%) (inhibition)": "<25"},
      {"molecule": "O=C1C(=Cc2ccc(O)c(Cl)c2)Oc2ccc3ccccc3c21", "note": "[BFO25]", "I (%) (inhibition)": "88 ± 11"},
      {"molecule": "O=C1C(=Cc2ccc(O)c(Cl)c2)Oc2c1ccc1ccccc21", "note": "[Compound 32]", "I (%) (inhibition)": "68 ± 15"},
      {"molecule": "COc1cc(C=C2Oc3ccc4ccccc4c3C2=O)cc([N+](=O)[O-])c1O", "note": "[BFO26]", "I (%) (inhibition)": "90 ± 7"},
      {"molecule": "Cc1cc(/C=C2\\Oc3cc(C)c(Cl)c(C)c3C2=O)ccc1O", "note": "[Compound 20]", "I (%) (inhibition)": "<25"},
      {"molecule": "Cc1cc2c(c(C)c1Cl)C(=O)C(=Cc1ccc(O)c(F)c1)O2", "note": "[Compound 21]", "I (%) (inhibition)": "<25"},
      {"molecule": "O=C(O)c1cc(C=C2Oc3c(ccc4ccccc34)C2=O)ccc1O", "note": "[Compound 31]", "I (%) (inhibition)": "<25"},
      {"molecule": "O=C(O)c1ccc(C=C2Oc3c(ccc4ccccc34)C2=O)cc1", "note": "[Compound 22]", "I (%) (inhibition)": "<25"},
      {"molecule": "O=C(O)COc1ccc2c(c1)OC(=Cc1cccc(F)c1)C2=O", "note": "[Compound 11]", "I (%) (inhibition)": "<25"},
      {"molecule": "O=C(O)c1ccc(C=C2Oc3cc(O)ccc3C2=O)cc1", "note": "[Compound 4]", "I (%) (inhibition)": "41 ± 9"},
      {"molecule": "O=C1/C(=C/c2ccc(O)c(F)c2)Oc2ccccc21", "note": "[Compound 1]", "I (%) (inhibition)": "36 ± 12"},
      {"molecule": "O=C(O)c1ccc(C=C2Oc3ccc4ccccc4c3C2=O)cc1", "note": "[Compound 39]", "I (%) (inhibition)": "69 ± 24"},
      {"molecule": "O=C1C(=Cc2ccccc2O)Oc2ccc(O)cc21", "note": "[Compound 13]", "I (%) (inhibition)": "<25"},
      {"molecule": "COc1cc(C=C2Oc3ccc4ccccc4c3C2=O)ccc1O", "note": "[BFO23]", "I (%) (inhibition)": "85 ± 14"},
      {"molecule": "COc1ccc2c(c1)OC(=Cc1ccc(O)c(OC)c1)C2=O", "note": "[Compound 10]", "I (%) (inhibition)": "27 ± 19"},
      {"molecule": "COc1ccc2c(c1)OC(=Cc1ccc(O)cc1)C2=O", "note": "[Compound 9]", "I (%) (inhibition)": "<25"},
      {"molecule": "O=C1C(=Cc2ccc(O)c(F)c2)Oc2ccc3ccccc3c21", "note": "[BFO24]", "I (%) (inhibition)": "95 ± 23"},
      {"molecule": "O=C1C(=Cc2ccc(O)c(F)c2)Oc2ccc(Cl)cc21", "note": "[Compound 16]", "I (%) (inhibition)": "<25"},
      {"molecule": "O=C1C(=Cc2ccc(O)c(O)c2)Oc2ccc3ccccc3c21", "note": "[Compound 41]", "I (%) (inhibition)": "<25"},
      {"molecule": "O=C1C(=Cc2ccc(O)cc2)Oc2c1ccc1ccccc21", "note": "[Compound 23]", "I (%) (inhibition)": "<25"},
      {"molecule": "O=C1C(=Cc2ccc(O)c(F)c2)Oc2c(Cl)ccc(Cl)c21", "note": "[Compound 19]", "I (%) (inhibition)": "61 ± 15"},
      {"molecule": "O=C1C(=Cc2ccc(O)c(Br)c2)Oc2ccc3ccccc3c21", "note": "[BFO27]", "I (%) (inhibition)": "86 ± 1"},
      {"molecule": "COc1cc(C=C2Oc3ccc4ccccc4c3C2=O)cc(Cl)c1O", "note": "[Compound 52]", "I (%) (inhibition)": "46 ± 15"},
      {"molecule": "COc1ccc2c(c1)OC(=Cc1ccccc1O)C2=O", "note": "[Compound 7]", "I (%) (inhibition)": "<25"},
      {"molecule": "Cc1cc(C=C2Oc3ccc(Br)cc3C2=O)ccc1O", "note": "[Compound 14]", "I (%) (inhibition)": "<25"},
      {"molecule": "CCOc1cc(/C=C2\\Oc3cc(O)ccc3C2=O)ccc1O", "note": "[Compound 6]", "I (%) (inhibition)": "<25"},
      {"molecule": "O=C1C(=Cc2cc(Cl)c(O)c(Cl)c2)Oc2c1ccc1ccccc21", "note": "[Compound 33]", "I (%) (inhibition)": "<25"},
      {"molecule": "O=C1C(=Cc2cc(Cl)c(O)c(Cl)c2)Oc2ccc3ccccc3c21", "note": "[Compound 51]", "I (%) (inhibition)": "78 ± 22"},
      {"molecule": "O=C1C(=Cc2ccc(O)c(F)c2)Oc2c1ccc1ccccc21", "note": "[Compound 36]", "I (%) (inhibition)": "<25"},
      {"molecule": "O=C(O)c1cc(C=C2Oc3ccc4ccccc4c3C2=O)ccc1O", "note": "[Compound 48]", "I (%) (inhibition)": "32 ± 24"}
    ]}
  ]
}
